Laboratory results from patent publication US9096591B2, “Tetracyclic compounds” (Medivation Technologies, Inc., priority 2007, dated 2015).

Legend:
[1] = target: T1, human recombinant serotonin (5-Hydroxytryptamine) 5-HT6 receptor (Homo sapiens, UniProt P50406); test: Serotonin 5-HT6 radioligand binding ([3H]LSD); set-up: Inhibition of ligand binding, Ser. 5-HT6: concentration or dose not given beside the values; conditions: percent inhibition of specific binding
T1 construct: expressed in transfected cells; host or cells: human HeLa cells
T1 sequence (P50406 whole entry): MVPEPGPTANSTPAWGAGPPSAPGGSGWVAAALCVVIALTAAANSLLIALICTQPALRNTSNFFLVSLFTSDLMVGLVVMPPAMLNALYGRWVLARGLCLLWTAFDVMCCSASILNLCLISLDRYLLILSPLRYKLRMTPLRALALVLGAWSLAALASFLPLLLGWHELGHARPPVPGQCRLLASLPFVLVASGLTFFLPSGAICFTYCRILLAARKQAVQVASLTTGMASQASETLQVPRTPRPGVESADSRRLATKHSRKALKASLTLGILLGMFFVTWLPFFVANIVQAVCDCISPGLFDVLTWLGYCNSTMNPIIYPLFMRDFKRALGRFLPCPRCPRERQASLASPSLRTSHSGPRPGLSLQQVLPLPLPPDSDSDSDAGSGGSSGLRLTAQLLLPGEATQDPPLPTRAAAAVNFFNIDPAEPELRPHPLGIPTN
Source text: Receptor proteins were filtered and washed, the filters were then counted to determine [3H]LSD specifically bound. […] Biochemical assay results are presented as the percent inhibition of specific binding in Table 6.

[2] = target: T2, human recombinant adrenergic α1D receptor (Homo sapiens, UniProt P25100); test: Adrenergic α1D radioligand binding ([3H]Prozosin); set-up: Inhibition of ligand binding, Adren. alpha1D: concentration or dose not given beside the values; conditions: percent inhibition of specific binding
T2 construct: expressed in transfected cells; host or cells: HEK-293 cells
T2 sequence (P25100 1-572): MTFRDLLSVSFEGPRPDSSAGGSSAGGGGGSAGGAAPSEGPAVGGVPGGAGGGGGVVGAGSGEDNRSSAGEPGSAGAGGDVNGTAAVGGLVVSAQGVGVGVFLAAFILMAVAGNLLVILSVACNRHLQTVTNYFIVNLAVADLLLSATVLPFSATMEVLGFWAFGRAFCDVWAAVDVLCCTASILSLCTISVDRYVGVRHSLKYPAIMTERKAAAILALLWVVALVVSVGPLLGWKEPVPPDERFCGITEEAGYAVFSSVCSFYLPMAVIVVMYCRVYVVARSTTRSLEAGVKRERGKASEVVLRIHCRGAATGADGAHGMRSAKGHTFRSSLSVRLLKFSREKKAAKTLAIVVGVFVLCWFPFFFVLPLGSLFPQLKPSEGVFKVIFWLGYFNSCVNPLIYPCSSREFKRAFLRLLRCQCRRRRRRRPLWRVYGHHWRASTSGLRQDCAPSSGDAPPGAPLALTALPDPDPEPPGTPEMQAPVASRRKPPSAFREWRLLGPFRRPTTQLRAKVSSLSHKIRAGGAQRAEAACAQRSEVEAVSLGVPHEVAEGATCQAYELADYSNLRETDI
Description: Compounds of invention were incubated with 0.6 nM [^3H]Prozosin for 60 minutes at 25° C. Non-specific binding was estimated in the presence of 10 μM phentolamine. Receptor proteins were filtered and washed, the filters were then counted to determine [^3H]Prozosin specifically bound. […] Biochemical assay results are presented as the percent inhibition of specific binding in Table 6.

[3] = target: T3, human recombinant histamine H2 receptor (Homo sapiens, UniProt P25021); test: Histamine H2 radioligand binding ([125I]Aminopotentidine); conditions: read-out: Inhibition of ligand binding, Hist. H2
T3 construct: expressed in transfected cells; host or cells: CHO-K1 cells
T3 sequence (P25021 whole entry): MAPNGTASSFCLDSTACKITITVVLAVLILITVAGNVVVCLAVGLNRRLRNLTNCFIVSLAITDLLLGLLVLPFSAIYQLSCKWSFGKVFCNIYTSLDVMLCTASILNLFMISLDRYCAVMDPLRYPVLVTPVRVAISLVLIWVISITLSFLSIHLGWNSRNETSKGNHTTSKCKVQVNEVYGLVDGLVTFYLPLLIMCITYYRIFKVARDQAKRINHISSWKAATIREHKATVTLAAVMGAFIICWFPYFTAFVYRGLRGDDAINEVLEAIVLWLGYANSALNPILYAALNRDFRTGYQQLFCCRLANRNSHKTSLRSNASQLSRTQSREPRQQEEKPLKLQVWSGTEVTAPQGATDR
Procedure, shortened: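 Test compounds were assessed for their ability to displace radioligand from the human recombinant histamine H2 receptor. Non-specific binding was determined in the presence of 3 μM Tiotidine, and results were expressed as percent inhibition of specific binding, with 1% DMSO serving as the vehicle.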

[4] = target: T4, human recombinant histamine H1 receptor (Homo sapiens, UniProt P35367); test: Histamine H1 radioligand binding ([3H]Pyrilamine); conditions: read-out: Inhibition of ligand binding, Hist. H1
T4 construct: expressed in transfected cells; host or cells: CHO cells
T4 sequence (P35367 whole entry): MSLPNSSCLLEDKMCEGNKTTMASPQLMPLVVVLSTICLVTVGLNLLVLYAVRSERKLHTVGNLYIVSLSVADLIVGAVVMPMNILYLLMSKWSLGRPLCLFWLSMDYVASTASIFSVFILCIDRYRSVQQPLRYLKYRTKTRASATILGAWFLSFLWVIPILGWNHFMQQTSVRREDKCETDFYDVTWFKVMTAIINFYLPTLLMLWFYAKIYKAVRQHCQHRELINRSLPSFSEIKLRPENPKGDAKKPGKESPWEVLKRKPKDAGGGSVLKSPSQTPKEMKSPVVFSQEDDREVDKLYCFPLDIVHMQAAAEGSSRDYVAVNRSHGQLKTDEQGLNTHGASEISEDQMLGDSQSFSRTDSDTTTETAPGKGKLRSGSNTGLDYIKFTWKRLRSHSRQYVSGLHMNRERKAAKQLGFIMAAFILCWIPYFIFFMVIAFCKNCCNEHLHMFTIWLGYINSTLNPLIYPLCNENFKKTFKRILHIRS
Procedure, shortened: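 Receptor expressed in CHO cells, assayed in 50 mM Tris-HCl pH 7.4 with 2 mM MgCl2, 100 mM NaCl, 250 mM sucrose. Compounds tested at 1 μM in 1% DMSO; non-specific binding set with 1 μM pyrilamine. Filter-bound radioactivity counted; values are percent inhibition of specific binding.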

| SMILES | Inhibition of ligand binding, Ser. 5-HT6 [1] | Inhibition of ligand binding, Adren. alpha1D [2] | inhibition at 1 µM [3] | inhibition at 1 µM [4] |
| --- | --- | --- | --- | --- |
| CN1CCc2c(c3cc(Cl)ccc3n2CCc2ccc(C(F)(F)F)nc2)C1 [Compound 250] | 84% | 93% | 54% | 102% |
| Cc1ccc2c(c1)c1c(n2CCc2ccc(C)nc2)CCN(C)C1 [Dimebon, dimebon, reference compound] | 95% | 91% | 83% | 94% |
